Data taken from patent publication US10131657B2, “Bromodomain inhibitors” (AbbVie Inc., priority 2013, dated 2018).
pEC50: −log10 of the molar value.

These compounds were tested on breast cancer cell line MX-1 (assay: MX-1 cell line proliferation assay, Method A). Conditions: Homo sapiens, MX1; MX-1 cells, 96-well, 72 hours, Cell Titer Glo; read-out: Cellular proliferation: EC50 Method A.
Assay type: cell-based
Outline: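 MX-1 breast cancer cells (5000/well) were attached overnight in RPMI 1640 with 10% FBS, then exposed for 3 days to compound at 0.0001–3 μM final. Cell Titer Glo luminescence was normalized to DMSO controls, and EC50s were obtained by sigmoidal fitting.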

| SMILES | pEC50 |
| --- | --- |
| Cn1cc(-c2cc(S(C)(=O)=O)ccc2N[C@H]2CC[C@H](NCc3ccc(F)cc3F)CC2)c2cc[nH]c2c1=O [Example 109, 4-[2-({trans-4-[(2,4-difluorobenzyl)amino]cyclohexyl}amino)-5-(methylsulfonyl)phenyl]-6-methyl-1,6-dihydro-7H-pyrrolo[2,3-c]pyridin-7-one] | 7.74 |
| Cn1cc(-c2cc(S(C)(=O)=O)ccc2Oc2cccc(NCC3CC3)c2)c2cc[nH]c2c1=O [Example 80, 4-[2-{3-[(cyclopropylmethyl)amino]phenoxy}-5-(methylsulfonyl)phenyl]-6-methyl-1,6-dihydro-7H-pyrrolo[2,3-c]pyridin-7-one] | 6.89 |
| Cn1cc(-c2cc(S(C)(=O)=O)ccc2N[C@H]2CC[C@H](NCc3ccc(Cl)cc3)CC2)c2cc[nH]c2c1=O [Example 113, 4-[2-({trans-4-[(4-chlorobenzyl)amino]cyclohexyl}amino)-5-(methylsulfonyl)phenyl]-6-methyl-1,6-dihydro-7H-pyrrolo[2,3-c]pyridin-7-one] | 7.71 |
| Cn1cc(-c2cc(S(C)(=O)=O)ccc2Oc2cccc(C(=O)N3CCN(C4CCCC4)CC3)c2)c2cc[nH]c2c1=O [Example 28, 4-[2-{3-[(4-cyclopentylpiperazin-1-yl)carbonyl]phenoxy}-5-(methylsulfonyl)phenyl]-6-methyl-1,6-dihydro-7H-pyrrolo[2,3-c]pyridin-7-one] | 6.71 |
| Cn1cc(-c2cc(S(C)(=O)=O)ccc2Oc2ccc(F)cc2F)c2cc(CN3CCN(C4CC4)CC3)[nH]c2c1=O [Example 115, 2-[(4-cyclopropylpiperazin-1-yl)methyl]-4-[2-(2,4-difluorophenoxy)-5-(methylsulfonyl)phenyl]-6-methyl-1,6-dihydro-7H-pyrrolo[2,3-c]pyridin-7-one] | 6.39 |
| Cn1cc(-c2cc(S(C)(=O)=O)ccc2Oc2cccc(NS(=O)(=O)c3ccccc3C#N)c2)c2cc[nH]c2c1=O [Example 55, 2-cyano-N-{3-[2-(6-methyl-7-oxo-6,7-dihydro-1H-pyrrolo[2,3-c]pyridin-4-yl)-4-(methylsulfonyl)phenoxy]phenyl}benzenesulfonamide] | 6.41 |
| CCS(=O)(=O)c1ccc(Oc2ccc(Cl)cc2C#CCN2CCOCC2)c(-c2cn(C)c(=O)c3[nH]ccc23)c1 [Example 82, 4-[2-{4-chloro-2-[3-(morpholin-4-yl)prop-1-yn-1-yl]phenoxy}-5-(ethylsulfonyl)phenyl]-6-methyl-1,6-dihydro-7H-pyrrolo[2,3-c]pyridin-7-one] | 6.66 |
| Cn1cc(-c2cc(S(C)(=O)=O)ccc2N[C@H]2CC[C@H](NCc3ccc4ccccc4c3)CC2)c2cc[nH]c2c1=O [Example 110, 6-methyl-4-[5-(methylsulfonyl)-2-({trans-4-[(naphthalen-2-ylmethyl)amino]cyclohexyl}amino)phenyl]-1,6-dihydro-7H-pyrrolo[2,3-c]pyridin-7-one] | 7.98 |
| CCS(=O)(=O)c1ccc(OCC2CC2(F)F)c(-c2cn(C)c(=O)c3[nH]c(CN4CCN(c5cccnc5)CC4)cc23)c1 (stereo not drawn) [Example 20, 4-{2-[(2,2-difluorocyclopropyl)methoxy]-5-(ethylsulfonyl)phenyl}-6-methyl-2-{[4-(pyridin-3-yl)piperazin-1-yl]methyl}-1,6-dihydro-7H-pyrrolo[2,3-c]pyridin-7-one] | 7.00 |
| COc1cccc(CNc2cccc(Oc3ccc(S(C)(=O)=O)cc3-c3cn(C)c(=O)c4[nH]ccc34)c2)c1 [Example 66, 4-[2-{3-[(3-methoxybenzyl)amino]phenoxy}-5-(methylsulfonyl)phenyl]-6-methyl-1,6-dihydro-7H-pyrrolo[2,3-c]pyridin-7-one] | 7.26 |
| Cn1cc(-c2cc(S(C)(=O)=O)ccc2Oc2cccc(C(=O)NCc3cc(F)cc(F)c3)c2)c2cc[nH]c2c1=O [Example 36, N-(3,5-difluorobenzyl)-3-[2-(6-methyl-7-oxo-6,7-dihydro-1H-pyrrolo[2,3-c]pyridin-4-yl)-4-(methylsulfonyl)phenoxy]benzamide] | 6.59 |
| CCS(=O)(=O)c1ccc(Oc2ccc(F)cc2F)c(-c2cn(C)c(=O)c3[nH]c(-c4ccnn4-c4ccccc4)cc23)c1 [Example 117, 4-[2-(2,4-difluorophenoxy)-5-(ethylsulfonyl)phenyl]-6-methyl-2-(1-phenyl-1H-pyrazol-5-yl)-1,6-dihydro-7H-pyrrolo[2,3-c]pyridin-7-one] | 6.60 |
| Cn1cc(-c2cc(S(C)(=O)=O)ccc2Oc2cccc(NCc3ccc(C#N)cc3)c2)c2cc[nH]c2c1=O [Example 61, 4-[({3-[2-(6-methyl-7-oxo-6,7-dihydro-1H-pyrrolo[2,3-c]pyridin-4-yl)-4-(methylsulfonyl)phenoxy]phenyl}amino)methyl]benzonitrile] | 7.37 |
| Cn1cc(-c2cc(S(C)(=O)=O)ccc2Oc2cccc(C(=O)NCCCN3CCCC3=O)c2)c2cc[nH]c2c1=O [Example 27, 3-[2-(6-methyl-7-oxo-6,7-dihydro-1H-pyrrolo[2,3-c]pyridin-4-yl)-4-(methylsulfonyl)phenoxy]-N-[3-(2-oxopyrrolidin-1-yl)propyl]benzamide] | 6.35 |

Other lines, results leading:

| pEC50 | SMILES |
| --- | --- |
| 7.43 | CCS(=O)(=O)Nc1cc(-c2cn(C)c(=O)c3[nH]ccc23)c(Oc2ccc(F)cc2F)cc1CN1CCCCC1 [Example 3, N-[4-(2,4-difluorophenoxy)-5-(6-methyl-7-oxo-6,7-dihydro-1H-pyrrolo[2,3-c]pyridin-4-yl)-2-(piperidin-1-ylmethyl)phenyl]ethanesulfonamide] |
| 6.74 | Cn1cc(-c2cc(S(C)(=O)=O)ccc2Oc2ccc(F)cc2F)c2cc(CN3CCN(C4CCOCC4)CC3)[nH]c2c1=O [Example 116, 4-[2-(2,4-difluorophenoxy)-5-(methylsulfonyl)phenyl]-6-methyl-2-{[4-(tetrahydro-2H-pyran-4-yl)piperazin-1-yl]methyl}-1,6-dihydro-7H-pyrrolo[2,3-c]pyridin-7-one] |
| 6.84 | Cn1cc(-c2cc(S(C)(=O)=O)ccc2Oc2cccc(NS(=O)(=O)c3cccc(F)c3)c2)c2cc[nH]c2c1=O [Example 40, 3-fluoro-N-{3-[2-(6-methyl-7-oxo-6,7-dihydro-1H-pyrrolo[2,3-c]pyridin-4-yl)-4-(methylsulfonyl)phenoxy]phenyl}benzenesulfonamide] |
| 6.81 | Cn1cc(-c2cc(S(C)(=O)=O)ccc2Oc2cccc(C(=O)NC[C@H]3CCCO3)c2)c2cc[nH]c2c1=O [Example 34, 3-[2-(6-methyl-7-oxo-6,7-dihydro-1H-pyrrolo[2,3-c]pyridin-4-yl)-4-(methylsulfonyl)phenoxy]-N-[(2R)-tetrahydrofuran-2-ylmethyl]benzamide] |
| 6.82 | Cc1cc(-c2ccc(-c3cn(C)c(=O)c4[nH]ccc34)c(OCC3CC3)c2)[nH]n1 [Example 1, 4-[2-(cyclopropylmethoxy)-4-(3-methyl-1H-pyrazol-5-yl)phenyl]-6-methyl-1,6-dihydro-7H-pyrrolo[2,3-c]pyridin-7-one] |
| 6.51 | CCS(=O)(=O)Nc1cc(-c2cn(C)c(=O)c3[nH]ccc23)c(Oc2ccc(F)cc2F)cc1CNCCO [Example 13, N-[4-(2,4-difluorophenoxy)-2-{[(2-hydroxyethyl)amino]methyl}-5-(6-methyl-7-oxo-6,7-dihydro-1H-pyrrolo[2,3-c]pyridin-4-yl)phenyl]ethanesulfonamide] |
| 7.40 | CCS(=O)(=O)Nc1cc(-c2cn(C)c(=O)c3[nH]ccc23)c(Oc2ccc(F)cc2F)cc1CN1CCN(C)CC1 [Example 5, N-{4-(2,4-difluorophenoxy)-5-(6-methyl-7-oxo-6,7-dihydro-1H-pyrrolo[2,3-c]pyridin-4-yl)-2-[(4-methylpiperazin-1-yl)methyl]phenyl}ethanesulfonamide] |
| < 6.00 | Cn1cc(-c2cc(S(C)(=O)=O)ccc2Oc2cccc(C(=O)N3CCN(CCn4ccnc4)CC3)c2)c2cc[nH]c2c1=O [Example 23, 4-{2-[3-({4-[2-(1H-imidazol-1-yl)ethyl]piperazin-1-yl}carbonyl)phenoxy]-5-(methylsulfonyl)phenyl}-6-methyl-1,6-dihydro-7H-pyrrolo[2,3-c]pyridin-7-one] |

These compounds were tested on breast cancer cell line MX-1 (assay: MX-1 cell line proliferation assay, Method B). Conditions: Homo sapiens, MX1; MX-1 cells, 384-well, 72 hours, Cell Titer Glo; read-out: Cellular proliferation: EC50 Method B.
Assay type: cell-based
Method: The impact of compounds of the Examples on cancer cell proliferation was determined using the breast cancer cell line MX-1 (ATCC) in a 3-day proliferation assay and the data are reported in Table 1.
MX-1 cells were maintained in RPMI 1640 medium (Sigma) supplemented with 10% FBS at 37° C. and an atmosphere of 5% CO2. For compound testing, MX-1 cells were plated in 384-well white with clear, flat bottom plates at a density of 750 cells/well in 25 μL of culture media and incubated at 370 overnight to allow cell adhesion and spreading. Ten point compound dilution series were prepared in DMSO via a 3-fold serial dilution from either 10 μM or 1 μM stock and added directly to the appropriate wells of the MX-1 cell plate by an ECHO liquid handler (Labcyte). The final compound concentrations in the wells were 10, 3.25, 1, 0.25, 0.124, 0.040, 0.0124, 0.0031, 0.0015 and 0.0005 μM or 1, 0.33, 0.1, 0.025, 0.0124, 0.004, 0.0012, 0.0003, 0.00015, 0.00005 μM, depending on the concentration of the compound stock solution.
Luminescence readings from the Cell Titer Glo assay were normalized to the DMSO treated cells and analyzed using Accelrys Assay Explorer 3.3 software with sigmoidal curve fitting to obtain EC50s. The minimum significant ratio (MSR) was determined to evaluate assay reproducibility (Eastwood et al., (2006) J Biomol Screen, 11: 253-261). The overall MSR was determined to be 3.3 and a moving MSR (last six run MSR overtime) has averaged 2.1.

| pEC50 | SMILES |
| --- | --- |
| < 6.00 | Cc1cccc(C)c1Oc1ccc(S(C)(=O)=O)cc1-c1cn(C)c(=O)c2[nH]c(-c3nc(C4CCCCC4)no3)cc12 [Example 136, 2-(3-cyclohexyl-1,2,4-oxadiazol-5-yl)-4-[2-(2,6-dimethylphenoxy)-5-(methylsulfonyl)phenyl]-6-methyl-1,6-dihydro-7H-pyrrolo[2,3-c]pyridin-7-one] |
| 6.08 | Cc1noc(C2CCCN2Cc2cc3c(-c4cc(S(C)(=O)=O)ccc4Oc4ccc(F)cc4F)cn(C)c(=O)c3[nH]2)n1 (stereo not drawn) [Example 131, 4-[2-(2,4-difluorophenoxy)-5-(methylsulfonyl)phenyl]-6-methyl-2-{[2-(3-methyl-1,2,4-oxadiazol-5-yl)pyrrolidin-1-yl]methyl}-1,6-dihydro-7H-pyrrolo[2,3-c]pyridin-7-one] |
